Laboratory results taken from US11129840B2, “Methods for identifying novel dosing regimens” (Zavante Therapeutics, Inc., priority 2017, dated 2021).
Values after ≈ are worked out from the molar mass of the structure shown.

How the values were obtained:
EC, KPN and PSA isolates = assay: Thigh infection, dose fractionation and efficacy against all 10 isolates; assay type: in vivo, mice; details: 24 h; commonly in isolates with lower MICs
Protocol: 5 EC (4 ESBL), 3 KPN (2 CR), and 2 PSA were used. MICs were determined by agar dilution. […] PK/PD index determination was performed using a dose fractionation (DF) study design. […] The dose-response data was analyzed using the Emax Hill equation.

[1] = Phase I safety and tolerability in healthy adult subjects; assay type: in vivo, human
Protocol: Materials/methods: Phase I, open-label study evaluating IV (ZTI-01) and PO (Monurol®) FOS in healthy adult subjects. […] Blood and urine samples were collected serially before and through 48 hours post-dose and analyzed via LC/MS-MS. Noncompartmental analyses were performed via WinNonlin. Safety was monitored throughout the course of the study.

[2] = tested on: Carbapenem-resistant Enterobacteriaceae (CRE) clinical isolates; assay: Agar dilution susceptibility, CRE clinical isolates; assay type: cell-based
EC that were CR = assay: Reference agar dilution MIC, resistant SENTRY isolates; assay type: cell-based, Escherichia coli
Protocol: Utilizing existing interpretative criteria for the marketed oral agent (dosed at 3 g) for analysis purposes, FOS susceptibility (S) was determined for recent resistant GN and GP clinical isolates including vancomycin-resistant Enterococcus faecium (VREM) and E. faecalis (VREF); methicillin-resistant Staphylococcus aureus (MRSA) and MR coagulase negative staphylococci (MR-CoNS), Escherichia coli (EC) and Klebsiella pneumoniae (KPN) containing extended spectrum beta-lactamases (ESBL) or were carbapenem resistant (CR); and), Pseudomonas aeruginosa (PSA) non-susceptible to ceftazidime (CAZ-NS) or to meropenem (MER-NS). […] Isolates were collected from hospitalized patients in the US as a part of the SENTRY surveillance program, 2013-2015.

Propionibacterium spp. = assay: Reference agar dilution MIC, anaerobes; assay type: cell-based
Protocol: (§1) FOS was tested against over 1,400 GN and 800 GP clinical isolates collected in US medical centers as part of the SENTRY Antimicrobial Surveillance Program (96% of isolates from 2015) and a selection of 29 GN and 20 GP anaerobes. Isolates were susceptibility (S) tested against FOS and comparators by reference agar dilution (25 μg/mL glucose-6-phosphate supplementation) using existing FDA breakpoints of the oral formulation for comparative assessments.

Veillonella spp. = assay: Reference agar dilution MIC, anaerobes; assay type: cell-based
Protocol: as §1

[3] = tested on: Clostridium spp., Finegoldia magna, and Peptostreptococcus spp.; assay: Reference agar dilution MIC, anaerobes; assay type: cell-based; details: small collection
Protocol: as §1

[4] = tested on: Prevotella and Porphyromonas spp.; assay: Reference agar dilution MIC, anaerobes; assay type: cell-based
Protocol: as §1

E. faecium = assay: Reference agar dilution MIC, SENTRY US isolates; assay type: cell-based; details: FDA oral breakpoints
Protocol: as §1

Serratia marcescens = assay: Reference agar dilution MIC, SENTRY US isolates; assay type: cell-based; details: randomly selected
Protocol: as §1

Proteus mirabilis = assay: Reference agar dilution MIC, SENTRY US isolates; assay type: cell-based; details: randomly selected
Protocol: as §1

Pseudomonas aeruginosa = assay: Reference agar dilution MIC, SENTRY US isolates; assay type: cell-based
Protocol: as §1

S. saprophyticus = assay: Reference agar dilution MIC, SENTRY US isolates; assay type: cell-based; details: Staphylococcus saprophyticus
Protocol: as §1

[5] = tested on: coagulase-negative staphylococci (CoNS) excluding S. saprophyticus; assay: Reference agar dilution MIC, SENTRY US isolates; assay type: cell-based
Protocol: as §1

C. freundii complex = assay: Reference agar dilution MIC, SENTRY US isolates; assay type: cell-based; details: Citrobacter freundii; randomly selected
Protocol: as §1

S. pyogenes = assay: Reference agar dilution MIC, SENTRY US isolates; assay type: cell-based; details: Streptococcus pyogenes
Protocol: as §1

Staphylococcus aureus = assay: Reference agar dilution MIC, SENTRY US isolates; assay type: cell-based
Protocol: as §1

E. cloacae complex = assay: Reference agar dilution MIC, SENTRY US isolates; assay type: cell-based; details: Enterobacter cloacae; randomly selected
Protocol: as §1

[6] = tested on: Acinetobacter-baumannii-calcoaceticus complex; assay: Reference agar dilution MIC, SENTRY US isolates; assay type: cell-based
Protocol: as §1

Enterobacter aerogenes = assay: Reference agar dilution MIC, SENTRY US isolates; assay type: cell-based; details: Klebsiella aerogenes; randomly selected
Protocol: as §1

Escherichia coli = assay: Reference agar dilution MIC, SENTRY US isolates; assay type: cell-based; details: randomly selected
Protocol: as §1

E. faecalis = assay: Reference agar dilution MIC, SENTRY US isolates; assay type: cell-based; details: FDA oral breakpoints
Protocol: as §1

Klebsiella pneumoniae = assay: Reference agar dilution MIC, SENTRY US isolates; assay type: cell-based
Protocol: as §1

Citrobacter koseri = assay: Reference agar dilution MIC, SENTRY US isolates; assay type: cell-based; details: randomly selected
Protocol: as §1

Enterobacteriaceae = assay: Reference agar dilution MIC, SENTRY US isolates; assay type: cell-based; details: selected Enterobacteriaceae
Protocol: as §1

S. agalactiae = assay: Reference agar dilution MIC, SENTRY US isolates; assay type: cell-based; details: Streptococcus agalactiae
Protocol: as §1

[7] = Single dose plasma PK in mice after SC administration; details: mouse, in vivo
[8] = tested on: Carbapenem-resistant Enterobacteriaceae (CRE) clinical isolates; assay: Susceptibility testing, CRE clinical isolates; assay type: cell-based

## C[C@@H]1O[C@@H]1P(=O)(O)O [FOS, fosfomycin]
EC, KPN and PSA isolates
  Maximal cidal activity: 2-3 log kill
[1]; 8 g IV
  share of TEAE that occurred after the 8 g IV dose: 67.9%
[1]; after 1 g IV
  hypocalcemia (most common TEAE): 17.9%
[1]; after 8 g IV
  bradycardia (most common TEAE): 28.6%
[1]; all regimens
  % of subjects reporting a treatment-emergent adverse event (TEAE): 80%
[1]; all regimens, resolved without sequelae
  severity of TEAEs: mild-moderate
[1]; human, in vivo
  headache (most common FOS-related TEAE): 10.7%
[2]
  % of isolates susceptible to FOS: 94%
  MIC90: 512 µg/mL (≈ 3710 µM)
[2]; 50 isolates
  MIC50: 2 µg/mL (≈ 14.5 µM)
[2]; C-A R isolates
  MIC range: 1 to 64 µg/mL
[2]; C-A R isolates, read-out: Median MIC
  MIC: 8 µg/mL (≈ 57.9 µM)
[2]; FOS R isolate with fosA2 and SNP in glpT, read-out: MIC
  MIC: 256 µg/mL (≈ 1850 µM)
[2]; FOS-R isolate harboring fosA3, read-out: MIC
  MIC: > 1020 µg/mL
[2]; third FOS-R isolate (OXA-181+, CTXM-15+Kp), read-out: MIC
  MIC: 128 µg/mL (≈ 927 µM)
EC that were CR; 9 of 11 isolates
  MIC range: 0.5 to 32 µg/mL
EC that were CR; Escherichia coli
  MIC: > 256 µg/mL
Propionibacterium spp.
  MIC: > 256 µg/mL
Veillonella spp.
  MIC range: ≤0.03 to 0.06 µg/mL
[3]
  MIC range: 0.5 to 32 µg/mL
[4]
  MIC: > 256 µg/mL
E. faecium
  % S: 79.8%
  % intermediate: 19.2%
Serratia marcescens
  MIC50: 8 µg/mL (≈ 57.9 µM)
  MIC90: 16 µg/mL (≈ 116 µM)
Proteus mirabilis
  MIC50: 1 µg/mL (≈ 7.24 µM)
  MIC90: 8 µg/mL (≈ 57.9 µM)
Pseudomonas aeruginosa
  MIC50: 64 µg/mL (≈ 464 µM)
  MIC90: 128 µg/mL (≈ 927 µM)
S. saprophyticus
  MIC50: 128 µg/mL (≈ 927 µM)
  MIC90: > 256 µg/mL
[5]
  MIC50: 8 µg/mL (≈ 57.9 µM)
[5]; Staphylococcus saprophyticus
  MIC90: 64 µg/mL (≈ 464 µM)
C. freundii complex
  MIC50: 0.5 µg/mL (≈ 3.62 µM)
  MIC90: 1 µg/mL (≈ 7.24 µM)
S. pyogenes
  MIC50: 32 µg/mL (≈ 232 µM)
  MIC90: 64 µg/mL (≈ 464 µM)
Staphylococcus aureus
  MIC50: 4 µg/mL (≈ 29 µM)
  MIC90: 8 µg/mL (≈ 57.9 µM)
E. cloacae complex
  MIC50: 8 µg/mL (≈ 57.9 µM)
  MIC90: 64 µg/mL (≈ 464 µM)
[6]
  MIC50: 128 µg/mL (≈ 927 µM)
  MIC90: 256 µg/mL (≈ 1850 µM)
Enterobacter aerogenes
  MIC50: 8 µg/mL (≈ 57.9 µM)
  MIC90: 16 µg/mL (≈ 116 µM)
Escherichia coli; Escherichia coli
  MIC50: 0.5 µg/mL (≈ 3.62 µM)
  MIC90: 1 µg/mL (≈ 7.24 µM)
Escherichia coli; FDA oral breakpoints
  % S to FOS: 100.0%
E. faecalis
  % S: 99.0%
  % intermediate: 1.0%
Klebsiella pneumoniae
  % of isolates ≤64 μg/mL: 97.0%
Klebsiella pneumoniae; Klebsiella pneumoniae
  MIC50: 4 µg/mL (≈ 29 µM)
  MIC90: 16 µg/mL (≈ 116 µM)
Citrobacter koseri
  MIC50: 1 µg/mL (≈ 7.24 µM)
  MIC90: 1 µg/mL (≈ 7.24 µM)
Enterobacteriaceae
  MIC50: 4 µg/mL (≈ 29 µM)
S. agalactiae
  MIC50: 8 µg/mL (≈ 57.9 µM)
  MIC90: 64 µg/mL (≈ 464 µM)
[7]
  half-life: 30.6 to 66 min
[8]; FOS R isolate with fosA2 and SNP in glpT
  MIC: 256 µg/mL (≈ 1850 µM)
[8]; FOS-R isolate harboring fosA3
  MIC: > 1020 µg/mL
[8]; of 50 isolates
  No. of isolates with FOS MIC>64 μg/mL: 3
[8]; third FOS-R isolate (OXA-181+, CTXM-15+Kp)
  MIC: 128 µg/mL (≈ 927 µM)
